Test results: ChEMBL document CHEMBL1135594 (J Med Chem, 2002)
Activity calls are given as the source filed them. The calls are words filed in the database; no cut-off is given here.

Columns and labels:
Plasmodium falciparum [1] = test: microbe, parasite or virus in culture
Plasmodium falciparum [2] = test: microbe, parasite or virus in culture; remark: listed apart in the source
Plasmodium falciparum [3] = test: Inhibition of chloroquine uptake from intact parasites; Not active; assay type: functional, organism-based
[4] = biological target: T1, Histidine-rich protein PFHRP-II (Plasmodium falciparum, UniProt P05227); test: Inhibition of beta-hematin formation; assay type: functional
T1 sequence (P05227 whole entry): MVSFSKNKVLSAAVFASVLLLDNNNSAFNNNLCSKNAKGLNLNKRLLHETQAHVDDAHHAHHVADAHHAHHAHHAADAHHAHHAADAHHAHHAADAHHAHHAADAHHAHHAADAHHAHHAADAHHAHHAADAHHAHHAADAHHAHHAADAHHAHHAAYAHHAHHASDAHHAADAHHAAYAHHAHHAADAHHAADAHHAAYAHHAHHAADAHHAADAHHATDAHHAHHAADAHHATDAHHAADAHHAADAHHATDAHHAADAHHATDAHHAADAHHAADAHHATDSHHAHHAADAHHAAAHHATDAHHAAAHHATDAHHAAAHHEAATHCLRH

Plasmodium falciparum [5] = test: microbe, parasite or virus in culture; remark: listed apart in the source
Plasmodium falciparum [6] = test: microbe, parasite or virus in culture; remark: listed apart in the source
[7] = Resistance factor as the ratio of IC50 against Plasmodium falciparum K1 to that of Plasmodium falciparum HB3.; assay type: functional
Plasmodium falciparum [8] = test: Displacement of chloroquine from Fe(3+) FPIX-loaded membrane; assay type: functional

Structure (SMILES)	IC50 (Plasmodium falciparum [1]) [µM]	IC50 (Plasmodium falciparum [2]) [µM]	NA (Plasmodium falciparum [3])	IC50 [4] [µM]	IC50 (Plasmodium falciparum [5]) [µM]	IC50 (Plasmodium falciparum [6]) [µM]	Resistance factor [7]	IC50 (Plasmodium falciparum [8]) [µM]
Clc1ccc2c(NCCN3CCOCC3)ccnc2c1	24.9	0.15	inactive	102	0.24			
Clc1ccc2c(NCCN3CCCC3)ccnc2c1	5.94	0.0068		78	0.0132	1.62		
CCN(CC)CCCC(C)Nc1ccnc2cc(Cl)ccc12 (stereo not drawn)							10	
CC(C)(C)NCCNc1ccnc2cc(C(F)(F)F)ccc12		0.0055		71	0.0098	2.09	1.78	4.96
FC(F)(F)c1ccc2c(NCCN3CCCCC3)ccnc2c1	8.39	0.0106		65	0.0222	2.03	2.09	
CC(C)(C)NCCNc1ccnc2cc(Cl)ccc12	3.94	0.0043		70	0.0153	0.71		
Clc1ccc2c(NCCN3CCCCC3)ccnc2c1	7.65	0.0068		86	0.013	0.91		
